Patent US20230015647A1, “INHIBITORS OF HISTONE DEMETHYLASES (PFI-63 AND PFI-90) FOR THE TREATMENT OF CANCER AND FOR THE INHIBITION OF HISTONE DEMETHYLASE IN CELLS” (The United States of America,as represented by the …, priority 2019, published 2023)
Entries after “also recorded” stand apart in the source; their conditions may differ. Read-outs that look alike come from different tables or passages of the source.

Columns and labels:
RH4 cells [1] = assay: Cell confluence assay (cytotoxicity) in RH4 cells; format: cell-based; settings: Homo sapiens, 72 hour time point
Method: (§1) A cell confluence assay was performed to further assess the cytotoxicity of PFI-63 in RH4 and RH30 rhabdomyosarcoma cells. Confluence data was collected via photographic images of cells treated with PFI-63 at the following time points: 24 hours, 48 hours, 72 hours, 96 hours and 120 hours. Exemplary dose response curves at 72 hours are presented as FIGS. 10 and 11 in RH4 and RH30 cells, respectively.
as §1, with “to” for “to further”, “PFI-90” for “PFI-63”, “32” for “10”, “33” for “11”

RH30 cells = assay: Cell confluence assay (cytotoxicity) in RH30 cells; format: cell-based; settings: 72 hour time point
Method: as §1
as §1, with “to” for “to further”, “PFI-90” for “PFI-63”, “32” for “10”, “33” for “11”

[2] = test system: rhabdomyosarcoma cells (i.e. RH4 and RH30 cells); assay: Cell confluence / cell number, rhabdomyosarcoma cells taken together; format: cell-based
Method: Among the 64 compounds identified above, 33 compounds of unknown mechanism of action were identified.
as §1
as §1, with “to” for “to further”, “PFI-90” for “PFI-63”, “32” for “10”, “33” for “11”

[3] = test system: OSA-CL osteosarcoma cells; assay: Cell confluence assay in OSA-CL osteosarcoma cells; format: cell-based
Method: as §1, with “OSA-CL osteosarcoma” for “RH4 and RH30 rhabdomyosarcoma”, “59” for “10”, “60 for PFI-63” for “11 in RH4”, “PFI-90” for “RH30 cells,”

[4] = test system: TC-32 Ewing's sarcoma cells; assay: Cell confluence assay in TC-32 Ewing's sarcoma cells; format: cell-based; settings: Homo sapiens, TC-32 cells
Method: as §1, with “OSA-CL osteosarcoma” for “RH4 and RH30 rhabdomyosarcoma”, “59” for “10”, “60 for PFI-63” for “11 in RH4”, “PFI-90” for “RH30 cells,”
A similar assay was performed to assess the cytotoxicity of PFI-63 and PFI-90 in TC-32 Ewing's sarcoma cells. Exemplary dose response curves at 72 hours are presented as FIGS. 61 and 62 for PFI-63 and PFI-90 respectively.

Log P / solubility = format: physicochemical
RH4 cells [5] = assay: Gene set enrichment analysis (GSEA) of RNASeq gene expression; format: cell-based, human
Method: Gene set enrichment analyses (GSEA) were performed according to methods known in the art to evaluate […] in cells treated with PFI-63 as compared to control cells. Briefly, gene expression in RH4 cells treated with PFI-63 was assessed by RNASeq, and the results were statistically compared with various pre-existing gene sets. […] The results also indicate that RH4 cells treated with PFI-63 experience upregulation of targets associated with myogenic differentiation and apoptosis (see FIGS. 18 and 19).
GSEA assays like those performed in Example 3 above, were also performed to assess PFI-90. The results for PFI-90 were similar to those obtained for PFI-63. […] The results also indicate that cells treated with PFI-90 experience upregulation of targets associated with myogenic differentiation and apoptosis (see FIGS. 39-40).

RH4 cells [6] = assay: Western blot (MYOG, cleaved PARP, PAX3-FOXO1); format: cell-based, human
Method: The GSEA results were supported by analysis via Western blot. […] This example confirms that PFI-63 disrupts PAX3-FOXO1 super enhancer circuitry. PFI-63 is also associated with upregulation of targets associated with myogenic differentiation and apoptosis.
In RH4 cells treated with PFI-90 at 3 μM, an increase in cleaved PARP (a marker for apoptosis) is observed at 24 hours (FIG. 48). This coincides with a decrease in PAX3-FOXO1 which is also observed at 24 hours (FIG. 49).

histone H3 methylation = assay: Western blot of histone H3 methylation in treated cells; format: cell-based
Description: A diagram illustrating this activity is provided as FIG. 26.
Analysis via Western blot confirms that PFI-90 inhibits lysine demethylase activity.

RH4 cells [7] = assay: Caspase 3 apoptosis assay in RH4 cells; format: cell-based, human
Description: (§2) The impact of PFI-63 and PFI-90 on apoptosis in rhabdomyosarcoma cells was investigated by assaying caspase 3 levels in the cells, and by annexin V staining.

SCMC cells = assay: Caspase 3 apoptosis assay in SCMC cells; format: cell-based, human
Description: as §2

RH4 cells [8] = assay: Annexin V staining; format: cell-based, human; settings: relative to DMSO control
Description: as §2

[9] = 72 hour time point, read-out: IC50
[10] = approximate, read-out: IC50 (toxic to osteosarcoma cells)
[11] = approximate, read-out: IC50 (toxic to Ewing's sarcoma cells)

`Cc1cc(C)cc(C(=O)NNC(=O)c2ccccn2)c1` [PFI-63] showed an IC50 (RH4 cells [1]) of 3.66 µM, an IC50 (RH30 cells) of 4.82 µM and an IC50 ([2]; FIGS. 8-9 (cell number by confluency, RH4, RH30, RH30.19luc), read-out: IC50) of 2 to 6 µM. The IC50 ([2]; RH4 and RH30 cells, approximate, read-out: IC50 (toxic to rhabdomyosarcoma cells)) was 3 to 5 µM, the IC50 [3, 9] was 7.57 µM and the IC50 [3, 10] was roughly 7.5 µM. It also gave an IC50 [4, 9] of 1.88 µM, an IC50 [4, 11] of roughly 2 µM and a logP (Log P / solubility) of 2.36. For the same compound, the “GSEA: genes that are induced upon KDM3B suppression” value (RH4 cells [5]) was “upregulated”, the “GSEA: targets associated with apoptosis” value (RH4 cells [5]) was “upregulation” and the “GSEA: targets associated with myogenic differentiation” value (RH4 cells [5]) was “upregulation”. The “GSEA: targets of the PAX3-FOXO1 fusion transcription factor” value (RH4 cells [5]) was “downregulated”, the “GSEA: targets that are upregulated by GSK-J4” value (RH4 cells [5]) was “upregulated; also recorded: upregulation” and the “GSEA: targets that are upregulated by JIB-04” value (RH4 cells [5]) was “upregulated; also recorded: upregulation”. The “MYOG (Western blot)” value (RH4 cells [6]) was “increase”, the “cleaved PARP (Western blot)” value (RH4 cells [6]) was “apoptosis; also recorded: increases” and the “H3K4me3 (Western blot)” value (histone H3 methylation; treated cells) was “global increase”. For the same compound, the “H3K9me3 (Western blot)” value (histone H3 methylation; treated cells) was “global increase”, the “H3K27me3 (Western blot)” value (histone H3 methylation; treated cells) was “global increase” and the “caspase 3” value (RH4 cells [7]) was “increased caspase 3”. For the same compound, the “caspase 3” value (SCMC cells) was “increased caspase 3” and the “cell death by annexin V staining” value (RH4 cells [8]) was “increase in cell death”.

In the case of `O=C(NNc1ccccn1)c1ccccn1` [PFI-90], the IC50 (RH4 cells [1]) is reported as 0.812 µM, the IC50 (RH30 cells) is reported as 3.2 µM and the “cytotoxicity compared with PFI-63” value ([2]; rhabdomyosarcoma cells (RH4, RH30)) is reported as “more cytotoxic to rhabdomyosarcoma cells than PFI-63”. It also gave an IC50 [3, 9] of 1.9 µM, an IC50 [3, 10] of roughly 2 µM and an IC50 [4, 9] of 1.11 µM. The IC50 [4, 11] was roughly 1 µM, the logP (Log P / solubility) was 0.82 and the solubility (Log P / solubility; relative to PFI-63) was “improved solubility relative to PFI-63”. The “GSEA: genes that are induced upon KDM3B suppression” value (RH4 cells [5]) was “upregulated”, the “GSEA: targets associated with apoptosis” value (RH4 cells [5]) was “upregulation” and the “GSEA: targets associated with myogenic differentiation” value (RH4 cells [5]) was “upregulation”. The “GSEA: targets of the PAX3-FOXO1 fusion transcription factor” value (RH4 cells [5]) was “downregulated”, the “PAX3-FOXO1 (Western blot)” value (RH4 cells [6]; 3 μM, 24 hours) was “decreases” and the “cleaved PARP (Western blot)” value (RH4 cells [6]; 3 μM, 24 hours) was “increases”. The “methylation of histone H3 (Western blot)” value (histone H3 methylation; as the concentration increases) was “also increases”, the “caspase 3” value (RH4 cells [7]) was “increased caspase 3” and the “caspase 3” value (SCMC cells) was “increased caspase 3”. The “cell death by annexin V staining” value (RH4 cells [8]) was “increase in cell death”.
